From US20260053801A1, “METHOD FOR TREATING AUTOPHAGY DEPENDENT CANCER WITH A PIKFYVE INHIBITOR” (The Regents of the University of Michigan, priority 2023, published 2026)
“Also recorded” adds a separate entry of the source.

Key:
[1] = system: autophagic flux in Panc 04.03 cells; assay: GFP-LC3-RFP-LC3ΔG autophagic flux probe assay in Panc 04.03 cells; assay type: cell-based, human; conditions: for autophagic flux induced by torin-1: 4-hour pre-treatment, then torin-1 100 nM 24 hours; for autophagic flux induced by torin-1 / basal autophagic flux: apilimod 300 nM, ESK981 1000 nM, chloroquine
From the text: (§1) Generation of the autophagic flux probe in 7940B, Panc 04.03, and iKRAS was done according to the original author's instructions. Kaizuka, T. et al., Mol Cell 64, 835-849, doi:10.1016/j.molcel.2016.09.037 (2016). Briefly, cells were infected with pMRX-IP-GFP-LC3-RFP-LC3DG, which was a gift from Noboru Mizushima (Addgene plasmid #84572; http://n2t.net/addgene:84572; RRID:Addgene_84572). Following puromycin selection, single-cell clones were expanded and genotyped to ensure the absence of homologous recombination between two LC3 fragments during retrovirus integration.
(§2) 15,000 cells were seeded in 96-well plates. After overnight incubation, cells were treated with the indicated compounds for 24 hours. […] Fluorescent signals were detected using the Infinite M1000 Pro plate reader (Tecan).

[2] = system: FASN and ACACA transcripts in AsPC1 cells; conditions: MRTX1133 100 nM, 24 hours; cited from earlier work
[3] = system: FASN and ACACA transcripts in AsPC1 cell-derived xenograft; conditions: 30 mg/kg MRTX1133 6 hours prior to tumor collection; cited from earlier work
[4] = system: autophagic flux in 7940B cells; assay: GFP-LC3-RFP-LC3ΔG autophagic flux probe assay in 7940B cells; assay type: cell-based, mouse; conditions: for basal autophagic flux / autophagic flux induced by torin-1: apilimod 100 nM, ESK981 1000 nM, chloroquine 50 μM; for autophagic flux induced by torin-1: torin-1 100 nM
From the text: as §1, §2

FASN and ACACA = assay: qPCR of FASN and ACACA in PDAC cell lines treated with KRAS-MAPK inhibitors; assay type: cell-based; conditions: eight hours; PDAC cell lines with the relevant KRAS mutation
Experimental: Total RNA was isolated from cells using the miRNeasy kit (Qiagen), and cDNA was synthesized from 1000 ng of total RNA using Maxima First Strand cDNA Synthesis Kit for RT-qPCR (Thermo Fisher Scientific). Quantitative real-time PCR was performed in triplicates using standard SYBR green reagents and protocols on a QuantStudio 5 Real-Time PCR system (Applied Biosystems). The target mRNA expression was quantified using the ΔΔCt method and normalized to ACTB (human) or Actb (murine) expression. All primers were designed using Primer 3 (http://frodo.wi.mit.edu/primer3/) and synthesized by Integrated DNA Technologies (Coralville).

[5] = system: autophagic flux in iKras cells; assay: Autophagic flux probe assay in iKRAS 9805 cells; assay type: cell-based; conditions: doxycycline withdrawal; apilimod 100 nM, ESK981 1000 nM, chloroquine 10 μM, 24 hours
From the text: as §1, §2

[6] = system: 7 human and mouse PDAC cell lines; conditions: 7 days, CellTiter-Glo
Experimental: Cells were plated into 96-well plates and incubated overnight at 37° C. in 5% CO2. The following day, a serial dilution of the indicated compounds was prepared in culture medium and added to the plate. The cells were then further incubated for 5 days (experiments involving MRTX1133 or trametinib) or 7 days (all other experiments). Subsequently, the CellTiter-Glo assay (Promega), was then performed according to the manufacturer's instructions. The luminescence signal was acquired using an Infinite M1000 Pro plate reader (Tecan), and the data were analyzed using GraphPad Prism 10 (GraphPad Software Inc.).

7940B cells [7] = assay: Real-time oxygen consumption rate (Resipher) in 7940B cells; assay type: cell-based, mouse; conditions: apilimod 100 nM, ESK981 1000 nM, bafilomycin 100 nM, chloroquine 100 μM
Experimental: Real-time monitoring of basal oxygen consumption rate was performed using a Resipher (Lucid Scientific). […] Immediately following treatment with an additional 50 μl of medium (for a total of 100 μl), OCR monitoring was started by placing the Resipher device on the cells, which was incubated at 37° C. and 5% CO2 for 24 hours.

mouse PIKfyve protein = molecular target: T1, mouse PIKfyve protein (Mus musculus, UniProt Q9Z1T6); assay: Cellular Thermal Shift Assay (CETSA) in 7940B cells; assay type: binding; conditions: 1000 nM, 2 hours
T1 construct: endogenous in cells; host or cells: 7940B (murine KPC pancreatic cancer cell line)
Experimental: CETSA was performed according to previously described protocols^71. Briefly, 7940B cells were seeded overnight and were subsequently treated with DMSO, ESK981 (1000 nM), or apilimod (1000 nM) for 2 hours. Cells were then harvested and made into single-cell suspensions of 1×10^6 cells each in […] of PBS containing protease inhibitors. The suspensions were then subjected to heating and cooling cycles (two cycles of 3-minute heating followed by 3-minute cooling at room temperature) using a thermal cycler. Cells were then lysed with three cycles of freeze-thawing in liquid nitrogen. Lysates were then analyzed using immunoblot analysis as previously described.

cell surface MHC-I = assay: Flow cytometry of cell surface MHC-I in mouse cancer lines; assay type: cell-based; conditions: pancreatic (KPC1361); extended to 4T1, B16-F10, LLC
7940B cells [8] = assay: Targeted lipidomics in 7940B cells; assay type: cell-based, mouse; conditions: 24 hours; apilimod 100 nM, ESK981 1000 nM
Experimental: Sample preparation: Samples for lipidomics analyses were prepared according to the automatic dual-metabolite/lipid sample preparation workflow described in the Agilent application note 5994-5065EN. Briefly, 1 million cells were washed in PBS and lysed with 1:1 trifluoroethanol/water at room temperature. Lysates were transferred to microcentrifuged tubes, incubated for 10 minutes, and then centrifuged at 250×g for 30 seconds. Samples were then dehydrated under reduced pressure with no heat. […]
LC-MS/MS analysis: samples were analyzed on an Agilent 1290 Infinity II Bio LC ultra-high performed liquid chromatography (UPLC) system consisting of a high-pressure binary pump, multicolumn thermostat, and a temperature controlled multi-sampler. Samples were analyzed in randomized order on an Agilent 649C triple quadrupole mass spectrometer equipped with an Agilent Jet Stream Dual ESI ion source. Specifically, samples were analyzed with the reverse phase LC-MS/MS method reported in the Agilent application note 5994-3747EN. After acquisition, datasets were processed with MassHunter Quantitative analysis software and subsequently imported into Mass Profiler Professional (MPP) for chemometric analysis. […]

[9] = Ikonomov et al. 2019; cited from earlier work
7940B cells [10] = assay: RNA-seq in 7940B cells; assay type: cell-based, mouse; conditions: eight-hour treatment
Experimental: RNA-seq libraries were prepared using 800 ng of total RNA. Ribosomal RNA were removed by enzymatic digestion of the specific probe-bound duplex rRNA, and then fragmented to around 200-300 bp with heat in fragmentation buffer (KAPA RNA Hyper+RiboErase HMR, Roche). Double-stranded cDNA was then synthesized by reverse transcription and underwent end-repair and ligation using New England Biolabs (NEB) adapters. Final library preparation was then prepared by amplification with 2×KAPA HiFI HotStart mix and NEB dual barcode. Library quality was measured on an Agilent 2100 Bioanalyzer (DNA 1000 chip) for concentration and product size. Paired-end libraries were sequenced with the Illumina NovaSeq, (2×151 nucleotide read length) with sequence coverage to 30-40 million paired reads. Reads were demultiplexed using Illumina's bcl2fastq conversion software v2.20. Transcripts were quantified by the alignment-free approach kallisto using index generated from mouse reference genome (mm10) and then summed to obtain gene level counts. Differential analysis was performed using limma-voom after TMM-normalization of gene level counts with calcNormFactors of edgeR. Genes with mean Transcripts Per Million (TPM) less than 1 in both control and treatment groups were considered as lowly expressed genes and excluded for differential analysis. […]

7940B cells [11] = assay: Targeted metabolomics in 7940B cells; assay type: cell-based, mouse; conditions: apilimod 100 nM, ESK981 1000 nM
Experimental: Polar metabolites from samples treated in biological triplicates were extracted using 80% v/v methanol/water and normalized using protein quantification from an additional sample from each condition. Equal estimated amounts of metabolites were dried using a SpeedVac vacuum concentrator, reconstituted in 50% v/v methanol in water, and analyzed by LC-MS as previously described. Data were analyzed as previously described with the Agilent Masshunter Workstation Quantitative Analysis for QQQ version 10.1 Build 10.1.733.0. No post-detection normalization was performed to avoid assuming linearity of signal. Heatmaps were generated using the Morpheus Matrix Visualization and analysis tool (https://software.broadinstitute.org/morpheus).

[12] = 24-hour treatment, labeled doses
[13] = MRTX1133 300 nM or trametinib 25 nM, 24 hours

T1 sequence (Q9Z1T6 whole entry): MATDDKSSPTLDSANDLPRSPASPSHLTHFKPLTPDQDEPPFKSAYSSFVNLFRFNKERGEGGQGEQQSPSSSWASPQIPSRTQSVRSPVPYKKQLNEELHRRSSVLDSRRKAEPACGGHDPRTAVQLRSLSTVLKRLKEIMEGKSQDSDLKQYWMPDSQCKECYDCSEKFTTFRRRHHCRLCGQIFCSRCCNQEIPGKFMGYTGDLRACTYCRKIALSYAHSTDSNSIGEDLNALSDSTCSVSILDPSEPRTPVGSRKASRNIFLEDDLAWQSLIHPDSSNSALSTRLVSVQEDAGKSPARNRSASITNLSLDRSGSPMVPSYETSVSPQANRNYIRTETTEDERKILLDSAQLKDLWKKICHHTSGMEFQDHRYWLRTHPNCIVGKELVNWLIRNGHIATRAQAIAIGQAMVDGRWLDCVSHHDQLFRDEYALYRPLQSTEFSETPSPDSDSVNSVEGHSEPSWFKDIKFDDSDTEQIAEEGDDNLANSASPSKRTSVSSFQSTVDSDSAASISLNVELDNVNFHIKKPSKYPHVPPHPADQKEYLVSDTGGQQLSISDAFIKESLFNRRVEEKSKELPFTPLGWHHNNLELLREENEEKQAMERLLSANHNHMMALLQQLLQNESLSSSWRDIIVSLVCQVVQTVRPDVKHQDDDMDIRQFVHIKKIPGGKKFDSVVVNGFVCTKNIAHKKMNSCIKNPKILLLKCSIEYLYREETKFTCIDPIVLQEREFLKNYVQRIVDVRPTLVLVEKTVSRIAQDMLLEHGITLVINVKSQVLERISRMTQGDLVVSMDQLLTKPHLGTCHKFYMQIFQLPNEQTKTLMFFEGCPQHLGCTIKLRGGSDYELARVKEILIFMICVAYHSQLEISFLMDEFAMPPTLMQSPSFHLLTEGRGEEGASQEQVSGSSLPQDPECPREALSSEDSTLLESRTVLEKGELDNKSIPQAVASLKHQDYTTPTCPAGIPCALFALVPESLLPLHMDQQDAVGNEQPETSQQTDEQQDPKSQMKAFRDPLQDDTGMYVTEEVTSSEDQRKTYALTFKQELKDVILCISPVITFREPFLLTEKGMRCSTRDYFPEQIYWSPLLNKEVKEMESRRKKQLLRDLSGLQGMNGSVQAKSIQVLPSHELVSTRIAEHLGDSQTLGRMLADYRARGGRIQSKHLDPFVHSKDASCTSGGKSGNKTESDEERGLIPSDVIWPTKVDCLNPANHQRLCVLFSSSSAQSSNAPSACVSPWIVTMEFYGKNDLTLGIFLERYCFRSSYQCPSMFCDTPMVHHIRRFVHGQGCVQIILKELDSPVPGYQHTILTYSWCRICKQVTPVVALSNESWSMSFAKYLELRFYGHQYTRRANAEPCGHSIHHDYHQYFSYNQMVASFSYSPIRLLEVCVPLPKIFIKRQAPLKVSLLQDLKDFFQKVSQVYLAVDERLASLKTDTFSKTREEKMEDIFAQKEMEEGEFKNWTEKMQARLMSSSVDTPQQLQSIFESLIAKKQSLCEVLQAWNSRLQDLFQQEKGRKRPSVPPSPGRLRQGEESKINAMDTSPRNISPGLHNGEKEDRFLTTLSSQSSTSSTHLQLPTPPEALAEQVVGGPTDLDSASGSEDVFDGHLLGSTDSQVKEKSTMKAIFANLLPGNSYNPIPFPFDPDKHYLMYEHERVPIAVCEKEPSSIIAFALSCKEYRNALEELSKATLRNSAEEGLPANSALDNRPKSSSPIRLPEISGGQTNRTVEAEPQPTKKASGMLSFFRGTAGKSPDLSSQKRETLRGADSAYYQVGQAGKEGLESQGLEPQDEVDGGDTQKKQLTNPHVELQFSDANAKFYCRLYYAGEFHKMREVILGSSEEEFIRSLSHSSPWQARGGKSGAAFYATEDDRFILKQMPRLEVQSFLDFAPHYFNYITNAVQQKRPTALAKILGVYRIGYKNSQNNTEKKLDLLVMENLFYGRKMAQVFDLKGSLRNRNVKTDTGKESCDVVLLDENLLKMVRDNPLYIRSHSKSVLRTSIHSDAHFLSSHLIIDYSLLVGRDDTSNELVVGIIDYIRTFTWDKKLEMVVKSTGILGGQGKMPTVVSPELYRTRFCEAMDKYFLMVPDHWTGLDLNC

With `C#Cc1c(F)ccc2cc(O)cc(-c3ncc4c(N5CC6CCC(C5)N6)nc(OC[C@@]56CCCN5C[C@H](F)C6)nc4c3F)c12` [MRTX1133] as the molecule, how does the “autophagy upon acute KRAS G12D inhibition” value [1, 12] read?
Its value is “upregulate autophagy”.

What about the “autophagic flux upon KRAS-MAPK inhibition” value [1, 13] of the same molecule?
The value was “induced autophagic flux”.

And the “FASN and ACACA transcripts in vitro” value [2]?
Its value is “decreases FASN and ACACA transcripts”.

What about the “FASN and ACACA transcripts in vivo” value [3] of the same molecule?
Its value is “decreases FASN and ACACA transcripts”.

And the “autophagy upon acute KRAS G12D inhibition” value [4, 12]?
The value was “upregulate autophagy”.

And the “autophagic flux upon KRAS-MAPK inhibition” value [4, 13]?
Its value is “induced autophagic flux”.

And the “transcription of FASN and ACACA” value (FASN and ACACA)?
Its value is “decreased transcription of FASN and ACACA”.

With `CCN(CC)CCCC(C)Nc1ccnc2cc(Cl)ccc12` (centres unmarked) [chloroquine] as the molecule, how does the “autophagic flux induced by torin-1” value [1] read?
The value was “decreased”.

And the basal autophagic flux [1]?
The basal autophagic flux was “decreased”.

And the “increase in autophagic flux upon Kras OFF” value [5]?
The value was “attenuated”.

And the “half-maximal inhibitory concentrations (IC50), cell viability” value [6]?
The value was “much higher”.

And the basal autophagic flux ([4]; 24 hours)?
The basal autophagic flux was “decreased”.

And the “autophagic flux induced by torin-1” value [4]?
The value was “decreased”.

What about the “OCR through 24 hours of treatment” value (7940B cells [7]) of the same molecule?
The value was “significantly decreased OCR”.

Which “binding / stabilization of PIKfyve (CETSA)” value (mouse PIKfyve protein) does the source give for `Cc1cccc(/C=N/Nc2cc(N3CCOCC3)nc(OCCc3ccccn3)n2)c1` [apilimod, N-[(E)-(3-methylphenyl)methylideneamino]-6-morpholin-4-yl-2-(2-pyridin-2-ylethoxy)pyrimidin-4-amine] here?
Its value is “bind to mouse PIKfyve protein; also recorded: stabilization of PIKfyve”.

What about the “autophagic flux induced by torin-1” value [1] of the same molecule?
Its value is “decreased”.

What about the basal autophagic flux [1] of the same molecule?
Its basal autophagic flux is “decreased”.

What about the “cell surface expression of MHC-I” value (cell surface MHC-I) of the same molecule?
Its value is “increased cell surface expression of MHC-I”.

And the cellular lipid landscape (7940B cells [8])?
Its cellular lipid landscape is “induced significant changes in the cellular lipid landscape”.

And the in vivo pharmacokinetics [9]?
Its in vivo pharmacokinetics is “poor in vivo pharmacokinetics”.

And the basal autophagic flux ([4]; 24 hours)?
Its basal autophagic flux is “decreased”.

What about the “autophagic flux induced by torin-1” value [4] of the same molecule?
Its value is “decreased”.

And the gene expression changes (7940B cells [10])?
The gene expression changes was “concordant gene expression changes”.

And the most upregulated pathways (7940B cells [10])?
Its most upregulated pathways is “cholesterol homeostasis, MTORC1 signaling, and fatty acid metabolism”.

And the glycolytic metabolites (7940B cells [11]; eight hours)?
Its glycolytic metabolites is “dramatic depletion of glycolytic metabolites”.

And the citrate level (7940B cells [11]; three hours)?
Its citrate level is “decrease in citrate”.
